One experiment has as its target CDK4/Cyclin D1 (Homo sapiens (Human), UniProt P11802). Briefly: CDK4/Cyclin D1 CHEF assay (Chelation-Enhanced Fluorescence), Ki by Morrison equation. The experiment is classed as biochemical. As to conditions: geometric mean, read-out: CDK4/Cyclin D1 GMean Ki. An excerpt: (§1) In Vitro Purified Enzyme Assays to Determine Potency for CDKs
(§2) CDK4/Cyclin D1 and CDK6/Cylcin D3 CHEF Assay
(§3) The Chelation-Enhanced Fluorescence (CHEF) monitors the phosphorylation state in real time where the level of fluorescence is directly proportional to the amount of phosphorylated substrate. CHEF exploits a synthetic α-amino acid with a side chain bearing an 8-hydroxyquinoline derivative (sulfonamido-oxine, Sox) which, upon coordination to Mg(II), relays information on the phosphorylation state of a proximal serine, threonine or tyrosine residue in peptide-based kinase substrates. Phosphorylation of a specific peptide (Catalog # AQT0258) from AssayQuant Technologies results in an increase in fluorescence at the excitation and emission wavelengths of 360 nm Ex/485 nm Em.
(§4) Examples along with DMSO (negative) and Palbociclib (positive) controls were added to 384-well plates at 100-fold their final concentrations followed by the addition of 10 nM CDK4/Cyclin D1 (LJIC-2007F1) or 10 nM CDK6/Cyclin D3 (LJIC-2009H2) for a 20 minute pre-incubation in assay buffer containing 40 mM HEPES, 1 mM Dithiothreito (DTT, 10 mM MgCl2, 1% Glycerol, 0.1% BSA. Enzyme reactions were initiated by the addition of AssayQuant Technologies peptide and ATP substrates (10 μM CHEF peptide (Catalog # AQT0258), 2 mM ATP) and allowed to proceed for 2 hours followed by fluorescence read of the reaction. Ki determinations were made from a plot of the fractional velocity as a function of inhibitor concentration fit to the Morrison equation with the enzyme concentration as a variable.
(§5) For all the CDK4 and CDK6 assays the Ki constant for compounds were calculated for each enzyme using the Morrison equation. Fractional activity was measured at different compound concentrations, [I] and the data fit to the Morrison equation where [E] is the enzyme concentration, [S] is the ATP concentration, and Kn^App is the apparent Km for ATP for each enzyme under each assay format. With the Ki calculations dependent on the assay conditions for each assay format the resulting Ki becomes assay independent with a strong one to one correlation of Ki values for compounds tested in both assay formats.
(§6) In Table 2, assay data are presented to two (2) significant figures as the geometric mean (Ki) based on the number of replicates listed (Number). A cell having NA means there was no data for that Example in the indicated assay.

The next experiment addresses CDK6/Cyclin D3 (Homo sapiens (Human), UniProt Q00534). Briefly: CDK6/Cyclin D3 CHEF assay (Chelation-Enhanced Fluorescence), Ki by Morrison equation. Conditions: geometric mean, read-out: CDK6/Cyclin D3: GMean Ki. The class given is biochemical.
From the text: as §1, §2, §3, §4, §5, §6

Like-named read-outs stand apart in the source and are kept apart here.

Chain of CDK4/Cyclin D1 (P11802 whole entry): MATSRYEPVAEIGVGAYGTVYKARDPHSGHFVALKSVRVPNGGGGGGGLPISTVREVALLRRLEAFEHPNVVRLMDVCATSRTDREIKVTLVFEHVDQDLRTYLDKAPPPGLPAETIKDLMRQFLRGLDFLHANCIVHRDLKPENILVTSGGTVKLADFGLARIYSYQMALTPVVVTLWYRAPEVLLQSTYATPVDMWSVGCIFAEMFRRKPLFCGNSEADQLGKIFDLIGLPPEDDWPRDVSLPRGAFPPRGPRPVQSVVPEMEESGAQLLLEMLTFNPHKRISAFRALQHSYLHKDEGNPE
Chain of CDK4/Cyclin D1 (P24385 whole entry partner): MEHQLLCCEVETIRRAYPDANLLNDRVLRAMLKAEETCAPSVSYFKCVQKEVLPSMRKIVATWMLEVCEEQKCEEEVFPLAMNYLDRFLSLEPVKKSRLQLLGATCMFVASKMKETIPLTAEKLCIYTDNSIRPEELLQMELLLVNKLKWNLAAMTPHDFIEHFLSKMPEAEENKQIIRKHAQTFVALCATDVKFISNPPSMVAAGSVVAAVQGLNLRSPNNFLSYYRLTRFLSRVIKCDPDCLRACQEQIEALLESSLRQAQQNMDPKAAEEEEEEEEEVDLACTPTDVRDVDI
Chain of CDK6/Cyclin D3 (Q00534 whole entry): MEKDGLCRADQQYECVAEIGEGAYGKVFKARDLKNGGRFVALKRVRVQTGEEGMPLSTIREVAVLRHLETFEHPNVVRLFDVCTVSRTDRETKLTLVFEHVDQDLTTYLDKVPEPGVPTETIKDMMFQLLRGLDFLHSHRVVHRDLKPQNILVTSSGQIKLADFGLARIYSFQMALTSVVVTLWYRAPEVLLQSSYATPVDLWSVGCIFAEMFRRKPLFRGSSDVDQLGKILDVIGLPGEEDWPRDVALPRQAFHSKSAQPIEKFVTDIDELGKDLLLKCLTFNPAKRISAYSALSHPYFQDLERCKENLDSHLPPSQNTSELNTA
Chain of CDK6/Cyclin D3 (P30281 whole entry partner): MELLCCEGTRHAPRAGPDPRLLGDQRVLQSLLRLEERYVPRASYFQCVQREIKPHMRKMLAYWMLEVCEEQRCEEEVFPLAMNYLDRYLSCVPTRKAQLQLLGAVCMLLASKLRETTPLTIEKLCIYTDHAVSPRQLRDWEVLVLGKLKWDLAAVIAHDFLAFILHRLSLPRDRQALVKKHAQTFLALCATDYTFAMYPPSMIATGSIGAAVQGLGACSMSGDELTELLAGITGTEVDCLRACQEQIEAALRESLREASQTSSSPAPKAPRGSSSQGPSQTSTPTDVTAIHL

Regarding `CC(=O)c1c(C)c2cnc(N[C@@H]3CCOC[C@H]3O)nc2n(C2CC(C)(C)C2)c1=O` [Example 19, 6-Acetyl-8-(3,3-dimethylcyclobutyl)-2-{[(3S,4R)-3-hydroxytetrahydro-2H-pyran-4-yl]amino}-5-methylpyrido[2,3-d]pyrimidin-7(8H)-one], the Ki was determined as 4.5 nM at CDK4/Cyclin D1 (tested in CHEF Assay) and 4.2 nM on CDK6/Cyclin D3 (tested in CHEF Assay).

As for `CC(=O)c1c(C)c2cnc(N[C@@H]3CCOC[C@H]3O)nc2n([C@H]2CCNC2)c1=O` [Example 18, 6-Acetyl-2-{[(3S,4R)-3-hydroxytetrahydro-2H-pyran-4-yl]amino}-5-methyl-8-[(3S)-pyrrolidin-3-yl]pyrido[2,3-d]pyrimidin-7(8H)-one], the Ki at CDK4/Cyclin D1 (tested in CHEF Assay) is 9.6 nM; on CDK6/Cyclin D3 (tested in CHEF Assay), 34 nM.

Regarding `CC(=O)c1c(C)c2cnc(N[C@@H]3CCOC[C@H]3O)nc2n([C@@H]2CC[C@@H]3C[C@@H]32)c1=O` (mixture of isomers) [Example 12, 6-Acetyl-8-[(1S,2R,5R)-bicyclo[3.1.0]hexan-2-yl]-2-{[(3S,4R)-3-hydroxytetrahydro-2H-pyran-4-yl]amino}-5-methylpyrido[2,3-d]pyrimidin-7(8H)-one and 6-Acetyl-8-[(1R,2S,5S)-bicyclo[3.1.0]hexan-2-yl]-2-{[(3S,4R)-3-hydroxytetrahydro-2H-pyran-4-yl]amino}-5-methylpyrido[2,3-d]pyrimidin-7(8H)-one], the Ki at CDK4/Cyclin D1 (tested in CHEF Assay) is 8.5 nM; at CDK6/Cyclin D3 (tested in CHEF Assay) it was 9.7 nM.

For `CC(=O)c1c(C)c2cnc(N[C@@H]3CCOC[C@H]3O)nc2n([C@H]2CC[C@H](N)CC2)c1=O` [Example 24], the Ki amounted to 13 nM at CDK4/Cyclin D1 (tested in CHEF Assay) and 24 nM on CDK6/Cyclin D3 (tested in CHEF Assay).

For `CC(=O)c1c(C)c2cnc(N[C@@H]3CCOC[C@H]3O)nc2n([C@H]2CCC[C@]2(C)O)c1=O` (mixture of isomers) [Example 6, 6-Acetyl-8-[(1S,2S)-2-hydroxy-2-methylcyclopentyl]-2-{[(3S,4R)-3-hydroxytetrahydro-2H-pyran-4-yl]amino}-5-methylpyrido[2,3-d]pyrimidin-7(8H)-one and 6-Acetyl-8-[(1R,2R)-2-hydroxy-2-methylcyclopentyl]-2-{[(3S,4R)-3-hydroxytetrahydro-2H-pyran-4-yl]amino}-5-methylpyrido[2,3-d]pyrimidin-7(8H)-one], the Ki at CDK4/Cyclin D1 (tested in CHEF Assay) came out at 113 nM; at CDK6/Cyclin D3 (tested in CHEF Assay) it was 190 nM.

On to `CC(=O)c1c(C)c2cnc(N[C@@H]3CCOC[C@H]3O)nc2n(C2CCCC2)c1=O` [Example 2, 6-acetyl-8-cyclopentyl-2-{[(3S,4R)-3-hydroxytetrahydro-2H-pyran-4-yl]amino}-5-methylpyrido[2,3-d]pyrimidin-7(8H)-one], for which the Ki at CDK4/Cyclin D1 (tested in both CHEF and MSA) came out at 0.8 nM; on CDK6/Cyclin D3 (tested in both CHEF and MSA) it was 1.2 nM.

In the case of `CC[C@H]1CCC[C@H]1n1c(=O)c(C(C)=O)c(C)c2cnc(N[C@@H]3CCOC[C@H]3O)nc21` [Example 10, 6-Acetyl-8-[(1R,2S)-2-ethylcyclopentyl]-2-{[(3S,4R)-3-hydroxytetrahydro-2H-pyran-4-yl]amino}-5-methylpyrido[2,3-d]pyrimidin-7(8H)-one], the results for the Ki on CDK4/Cyclin D1 (tested in CHEF Assay) and at CDK6/Cyclin D3 (tested in CHEF Assay) were 2.7 nM and 5 nM, respectively.

Take `CC(=O)c1c(C)c2cnc(N[C@@H]3CCOC[C@H]3O)nc2n([C@H]2CCOC2)c1=O` [Example 31]: the Ki at CDK4/Cyclin D1 (tested in CHEF Assay) is 27 nM; on CDK6/Cyclin D3 (tested in CHEF Assay), 29 nM.

Consider `CC(=O)c1c(C)c2cnc(N[C@@H]3CCOC[C@H]3O)nc2n([C@@H]2CCC[C@]2(C)F)c1=O` (mixture of isomers) [Example 16, 6-Acetyl-8-[(1R,2S)-2-fluoro-2-methylcyclopentyl]-2-{[(3S,4R)-3-hydroxytetrahydro-2H-pyran-4-yl]amino}-5-methylpyrido[2,3-d]pyrimidin-7(8H)-one and 6-Acetyl-8-[(1S,2R)-2-fluoro-2-methylcyclopentyl]-2-{[(3S,4R)-3-hydroxytetrahydro-2H-pyran-4-yl]amino}-5-methylpyrido[2,3-d]pyrimidin-7(8H)-one], for which the figures for the Ki at CDK4/Cyclin D1 (tested in CHEF Assay) and at CDK6/Cyclin D3 (tested in CHEF Assay) were 2.6 nM and 5 nM, respectively.

With `CC(=O)c1c(C)c2cnc(N[C@@H]3CCOC[C@H]3O)nc2n([C@H]2CC[C@@H](O)CC2)c1=O` [Example 20, 6-acetyl-8-(cis-4-hydroxycyclohexyl)-2-{[(3S,4R)-3-hydroxytetrahydro-2H-pyran-4-yl]amino}-5-methylpyrido[2,3-d]pyrimidin-7(8H)-one], the Ki was determined as 54 nM at CDK4/Cyclin D1 (tested in CHEF Assay) and 58 nM on CDK6/Cyclin D3 (tested in CHEF Assay).

With `CC(=O)c1c(C)c2cnc(N[C@@H]3CCOC[C@H]3O)cc2n(C2CCCC2)c1=O` [Example 5, 3-Acetyl-1-cyclopentyl-7-{[(3S,4R)-3-hydroxytetrahydro-2H-pyran-4-yl]amino}-4-methyl-1,6-naphthyridin-2(1H)-one], the Ki at CDK4/Cyclin D1 (tested in both CHEF and MSA) amounted to 0.4 nM; on CDK6/Cyclin D3 (tested in both CHEF and MSA) it was 1.3 nM.

`CC(=O)c1c(C)c2cnc(N[C@@H]3CCOC[C@H]3O)nc2n(C2CCNCC2)c1=O` [Example 32]: the Ki at CDK4/Cyclin D1 (tested in CHEF Assay) turned out to be 16 nM; at CDK6/Cyclin D3 (tested in CHEF Assay) it was 27 nM.

For the molecule `CC(=O)c1c(C)c2cnc(N[C@@H]3CCOC[C@H]3O)nc2n([C@H]2CC[C@H](N(C)C)CC2)c1=O` [Example 25], the Ki on CDK4/Cyclin D1 (tested in CHEF Assay) was 36 nM; at CDK6/Cyclin D3 (tested in CHEF Assay), 110 nM.

Turning to `CC(=O)c1c(C)c2cnc(N[C@@H]3CCOC(C)(C)[C@H]3O)nc2n(C2CCCC2)c1=O` (mixture of isomers) [Example 8, 6-Acetyl-8-cyclopentyl-2-{[(3S,4R)-3-hydroxy-2,2-dimethyltetrahydro-2H-pyran-4-yl]amino}-5-methylpyrido[2,3-d]pyrimidin-7(8H)-one and 6-Acetyl-8-cyclopentyl-2-{[(3R,4S)-3-hydroxy-2,2-dimethyltetrahydro-2H-pyran-4-yl]amino}-5-methylpyrido[2,3-d]pyrimidin-7(8H)-one], the Ki on CDK4/Cyclin D1 (tested in CHEF Assay) is above 1200 nM; at CDK6/Cyclin D3 (tested in CHEF Assay) it was above 560 nM.

For `CC(=O)c1c(C)c2cnc(N[C@@H]3CCOC[C@H]3O)nc2n([C@H]2C[C@H](O)C2)c1=O` [Example 21, 6-acetyl-8-(trans-3-hydroxycyclobutyl)-2-{[(3S,4R)-3-hydroxytetrahydro-2H-pyran-4-yl]amino}-5-methylpyrido[2,3-d]pyrimidin-7(8H)-one], the Ki at CDK4/Cyclin D1 (tested in CHEF Assay) and at CDK6/Cyclin D3 (tested in CHEF Assay) was 13 nM throughout.

For the molecule `CC(=O)c1c(C)c2cnc(N[C@@H]3CCOC[C@H]3O)nc2n(C2CC2)c1=O` [Example 34], the Ki on CDK4/Cyclin D1 (tested in CHEF Assay) was 52 nM; on CDK6/Cyclin D3 (tested in CHEF Assay), 85 nM.

Take `CC(=O)c1c(C)c2cnc(N[C@@H]3CCOC[C@H]3O)nc2n([C@H]2CCN(C)C2)c1=O` [Example 26]: the Ki worked out at 13 nM at CDK4/Cyclin D1 (tested in CHEF Assay) and 39 nM at CDK6/Cyclin D3 (tested in CHEF Assay).

On to `CC(=O)c1c(C)c2cnc(N[C@@H]3CCOC[C@H]3O)nc2n(C2CC3(C2)CN(CC(F)F)C3)c1=O` [Example 29, 6-acetyl-8-[2-(2,2-difluoroethyl)-2-azaspiro[3.3]heptan-6-yl]-2-{[(3S,4R)-3-hydroxytetrahydro-2H-pyran-4-yl]amino}-5-methylpyrido[2,3-d]pyrimidin-7(8H)-one], for which the results for the Ki on CDK4/Cyclin D1 (tested in CHEF Assay) and on CDK6/Cyclin D3 (tested in CHEF Assay) were 1.9 nM and 4.9 nM, respectively.

(Values after patent US11203594B2, “Anti-proliferative agents for treating PAH” (Pfizer Inc., priority 2019, dated 2021).)
